Experimental findings from a melting point compilation (Tetko et al.; mined from patent text by program, amines drawn as free bases though some values may be those of a salt) are described below.

With `COc1ccccc1NC(=O)Nc1nc(N2CCCCC2)nc(N(CCC(=O)O)Cc2cccc(C)c2)n1`, the melting point was 91 to 92 °C. In the case of `Cc1ccc(-c2nc(Sc3ccc(Cl)cc3)cc(N3CCN(CCO)CC3)n2)cc1`, the melting point fell in the range of 123 to 125 °C. The value for `C=CC1(C=CC)OC(=O)N(c2cc(Cl)cc(Cl)c2)C1=O` (stereo not given) was 141 °C; that for `Cc1ccc(S(=O)(=O)C=CC#N)cc1NS(=O)(=O)c1ccc2ccccc2c1` was 214 to 216 °C; that for `CCCc1nc2c(N)nc3ccc(-c4cccc(NC(C)=O)c4)cc3c2s1` was 242 to 245 °C.

Take `Brc1cccc(C2Cc3cnc(Nc4ccc(CCNCCN5CCCC5)cc4)nc3-c3ccccc32)c1` (stereo not given): the melting point lay in the range of 83 to 85 °C. Compound `CC(C)n1nc(-c2ccc(=O)[nH]c2-c2ccccc2)ccc1=O` gave a melting point of 107 to 109 °C. The value for `CC(=O)OC1CC(OCc2ccccc2)C2COC1O2` (stereo not given) was 85 to 87 °C.

`COCc1ccc(Oc2cncc3sc(C(N)=O)cc23)cc1` had a melting point of 168 °C. Then `CCCCn1c(=O)[nH]c(=S)c2[nH]c(CC)nc21`, with 206 to 207 °C; and `CCCCCCCCSc1ccc(C=Cc2ccc([N+](=O)[O-])cc2)cc1`, with 53 °C; and `OCc1cccc2nc(-c3ccccc3)oc12`, with 131 °C. Then `CC(C)c1cccc(C(C)C)c1NC(=NCc1cccc(CCl)c1)Nc1c(C(C)C)cccc1C(C)C`, with 122 to 124 °C; and `CC(C)C(NS(=O)(=O)c1ccc(Br)cc1)C(=O)OC(C)(C)C` (stereo not given), with 108 to 110 °C; and `O=C(Nc1nnn(CC2CC2)n1)C1c2ccccc2Oc2ccccc21`, with 222 to 224 °C.

Compound `[N-]=[N+]=NCCOc1cc(Cl)cc([N+](=O)[O-])c1N` gave a melting point of 113 to 114 °C. Then `CC(=O)c1ccc(OCc2ccccc2)c2c1OC(C)(C)C(=O)N2`, with 124 to 126 °C; and `Nc1cc(F)ccc1C=C(Br)Br`, with 72 to 73 °C; and `CCC(=O)c1cc2c(Cl)cccc2s1`, with 96 to 98 °C. For `Fc1ccc(Cn2c(NC3CCN(C4CCCN(Cc5ccccc5)C4)CC3)nc3ccccc32)cc1` (stereo not given), the melting point was found to be 175 °C. Consider `CN1CCN(C(=O)c2cn(C)nc2Nc2ccc(C(F)(F)F)cc2N)CC1`, for which the melting point worked out at 170 °C.

`O=C(NCCO)c1cccc(-c2ccnc3cc(Cc4cccc(C(F)(F)F)c4)oc23)c1` came in with a melting point of 158 to 159 °C. For the compound `CCCN(CCC)Cc1nnc(-c2ncn3c2[C@@H]2CCN2C(=O)c2c(Cl)cccc2-3)o1`, the melting point lay in the range of 134 to 136 °C. The value for `COC(=O)C1=C(C)NC(C)=C(C(=O)OCCN(O)CCC(c2ccccc2)c2ccccc2)C1c1cccc([N+](=O)[O-])c1` (stereo not given) was 100 to 105 °C. The value for `Cc1cccc2c(-c3ccc(Cl)cc3Cl)onc12` was 94 to 95 °C; that for `O=C(O)Cn1cccc1Sc1ccccc1` was 101 to 102 °C. The compound `O=C(O)c1ccc(/C=C\C(c2cc(Cl)c(Cl)c(Cl)c2)C(F)(F)F)cc1Br` (stereo not given) gave a melting point of 54 to 64 °C. `CC(C)c1cccc(C(C)C)c1NC(=S)CCC(=O)c1ccccc1` came in with a melting point of 168 to 169 °C. With `CN(C)C1CCN(c2nc(N3CCOCC3)c3ncnc(NCCCc4ccccc4)c3n2)CC1`, the melting point lay in the range of 82 to 84 °C. Then `CC(=O)Oc1ccc(S(=O)(=O)ON=C(C#N)c2cccs2)cc1`, with 114 to 115 °C; and `CCOC(=O)c1cc(=O)c(O)c(-c2ccc(O)cc2)o1`, with 228 to 232 °C; and `O=C(CCc1ccccc1)OCCOC(=O)NC1(C(=O)O)CC1`, with 133 to 134 °C. `Clc1ccc(Nc2nc3ccccc3c3[nH]c(C4CCCCC4)nc23)cc1Cl` registered a melting point of 237 to 240 °C. Then `COc1ccc(Oc2c(C)cc([N+](=O)[O-])cc2C)cc1C(=O)c1ccc(F)cc1`, with 167 to 168 °C; and `CN(C)C(=O)C1CC(=O)N(c2cc(C(F)(F)F)cc(C(F)(F)F)c2)C1` (stereo not given), with 84.5 to 86 °C; and `Nc1nnc(OCc2ccccc2)s1`, with 173 to 175 °C. `O=C(Nc1ccc(N2CCN(C(=O)Nc3ccc(OCCO)cc3C(F)(F)F)CC2)cc1)Nc1ccccc1F` displayed a melting point of 219 to 220 °C. The value for `COc1cc2c(cc1C(=O)O)OCO2` was 151 °C; that for `COC(=O)[C@@H]1C(=O)NC[C@H]1c1ccc(Cl)cc1` was 166 °C.

Consider `CCNC(=O)c1c(Cl)cccc1OC(C)(C)C`, for which the melting point was in the range of 126 to 127 °C. In turn, `CN1CCN(c2ccc(Cl)nn2)CC1` came in with a melting point of 106 to 107 °C. Then `NC(=O)c1cc2ccc(F)cc2nc1N`, with 259 to 262 °C; and `COc1ccc2cc(C(C)(O)C(=O)O)ccc2c1` (stereo not given), with 150 to 152 °C; and `COc1ccc2c(=O)cc(SC)sc2c1`, with 133 to 135 °C.

Compound `Cc1nc(-c2ccc(Br)cc2)sc1C(=O)N[C@H](C)[C@](O)(Cn1cncn1)c1ccc(F)cc1F` displayed a melting point of 165 to 166 °C. The value for `CN(C)CCN1C(=O)C(N)C(=O)N(CC2CCCCC2)c2ccccc21` (stereo not given) was 94 to 95 °C; that for `CC(C)Sc1ccc2c(c1)NC(=O)C2` was 99 to 102 °C; that for `Nc1ccc(OCCCCN2C(=O)c3ccccc3C2=O)cc1` was 119 to 121 °C. In turn, `COc1cc(Cl)c2c(=O)c(C(C)C)coc2c1` had a melting point of 177 to 179 °C. For the compound `CCn1nc(-c2nc(C#N)c(NCc3ccc(OC)cc3)nc2-c2ccccc2)ccc1=O`, the melting point is 166 to 168 °C. Then `Cn1nc(C(F)(F)F)nc1NCCCCOc1cccc(CN2CCCCC2)c1`, with 70 °C. The value for `COc1cc(C(C)=O)ccc1OCCCCBr` was 52 to 54 °C. As for `CC(CC(C)(C)C)CP(=O)(O)Cc1cc(C(C)(C)C)c(O)c(C(C)(C)C)c1` (stereo not given), the melting point was in the range of 108 to 110 °C.

In turn, `CCOC(=O)C1=C(C)Nc2ccnc(OCC)c2C1c1ccccc1C(F)(F)F` (stereo not given) showed a melting point of 91 to 94 °C.

`COC(=O)CCC(=O)Oc1c(C)n(Cc2ccccc2)c2c(OCc3ccccc3)nncc12` yielded a melting point of 189 to 190 °C. The value for `CC(C(N)=O)c1ccc2c(c1)C(=O)Cc1c(Cl)cccc1S2` (stereo not given) was 195 to 196 °C. Compound `COc1cccc2c(=O)c(C(N)=O)coc12` gave a melting point of 229 to 231 °C. `COc1cc(O)c2c(=O)c(OC(C)C)c(-c3ccc(O)c(OC)c3)oc2c1` returned a melting point of 169 to 171 °C. Consider `O=S(=O)(c1ccc(Br)cc1)N1CCNCC1`, for which the melting point lay within 102 to 104 °C. On to `CS(=O)(=O)c1ccc(-c2cc(C#N)sc2-c2ccc(F)cc2)cc1`, for which the melting point lay in the range of 139 to 140 °C. On to `COC(=O)CCc1cnoc1-c1ccc(-c2ccccc2)cc1`, for which the melting point lay in the range of 103 to 104 °C.

In turn, `COc1ccc(S(=O)(=O)C2(CCCC#Cc3cccc(N)c3)SC(=O)NC2=O)cc1` (stereo not given) returned a melting point of 135 to 138 °C. `CCCC(=O)Nc1n[nH]c2cc(-c3ccccc3)ccc12` registered a melting point of 220 °C. In turn, `Cc1cccc(C)c1NC(=S)CC(=O)Nc1ccc(-c2ncn(-c3ccc(OC(F)(F)F)cc3)n2)cc1` had a melting point of 178 to 182 °C. Then `Cc1nc(-c2ccccc2)nc(-c2cccc([N+](=O)[O-])c2)c1C(C)Br` (stereo not given), with 133 to 134 °C; and `CCOC(=O)c1sc(Nc2ccccc2)c2c1CCc1cn[nH]c1-2`, with 202 to 203 °C. `CC(=O)O[C@H]1C[C@@H](N=O)C(Cl)O[C@@H]1COS(=O)(=O)c1ccc(C)cc1` (stereo not given in full) displayed a melting point of 148 to 150 °C. As for `Fc1ccccc1C1=CCc2nnc(Br)n2-c2ccc(Cl)cc21`, the melting point worked out at 222 °C. The value for `CCCCCCN(Cc1ccc2ccccc2n1)C(Nc1ccc(OC)cc1OC)=C1C(=O)OC(C)(C)OC1=O` was 106 to 109 °C. Then `O=C(Nc1ccc(C(=O)N2Cc3cccn3Cc3ccccc32)c(Cl)c1)c1ccccc1-c1cccs1`, with 132 to 136 °C; and `CCOC(=O)N1CCC(NC(=S)Nc2cncnc2NCc2ccco2)CC1`, with 193 °C; and `C=C(CCl)COc1ccc(C(=O)OC)cc1CS(=O)(=O)c1ccccc1`, with 92 to 93 °C. The value for `Cc1[nH]cnc1CSCCNc1[nH]cc(CCc2ccccc2)c1[N+](=O)[O-]` was 186 to 187 °C; that for `Nc1ncnc2c1nnn2[C@@H]1C[C@H](CO)[C@@H](O)[C@@H]1F` was 214 to 216 °C. The compound `CCCCCCCCCCCCCCCCOc1cccc(O)c1C` yielded a melting point of 53 to 54 °C. The value for `O=C=NC(=O)CS(=O)(=O)c1ccc2ccccc2c1` was 152 to 155 °C.

Turning to `COCC(=O)C1CCC2C3CCC4CC(O)CCC4(C)C3CCC12C` (stereo not given), the melting point fell in the range of 163 to 164 °C. In turn, `O=C1c2cc3ccc4c(c3c(-c3ccc5c(c3)OCO5)c2CN1CCCO)OCO4` registered a melting point of 213 to 215 °C.

As for `Cc1cc(Br)cc(C)c1OCC1CCC[N+](C)([O-])C1` (stereo not given), the melting point lay within 210 to 211 °C.

As for `CCCCCCCCCCCCCCCCCCOC(=O)c1ccc(C(=O)OCCCCCCCCCCCCCCCCCC)cc1`, the melting point was determined as 140 °C. The value for `Cc1[nH]c(-c2ccccc2)c(N)c1C(=O)Nc1ccccc1` was 271 to 273 °C; that for `CCOC(=O)c1cc2cc(OC(C)=O)ccc2n1C` was 87 to 89 °C; that for `O=C1OC2(CCNCC2)CN1Cc1ccccc1` was 69 to 71 °C. Then `O=C(Nc1ccccc1)c1nc2ccccc2[nH]1`, with 201 to 202 °C; and `CC(O)=C(C#N)C(=O)Nc1ccc(S(C)(=O)=O)cc1`, with 205 to 206 °C; and `COc1ccc2c(c1)CCC(N(C)c1ccc(O)cc1)C2` (stereo not given), with 79 to 82 °C. The value for `COC(=O)c1cc(OC)cc(C(=O)OC)c1` was 108 to 109 °C. `CCN(CC)CCOc1ccc2c(c1)c(C(=O)OCc1ccccc1)c(C)n2C` had a melting point of 73 to 74 °C. Then `COc1cc(OC)c2c(=O)[nH]c(-c3cc(C)c(OCCN4CCCC4)c(C)c3)nc2c1`, with 181 to 183 °C; and `CCCC(=O)Nc1ccc(O)c(-c2ccno2)c1`, with 238 °C.

Broadly, the melting point is the temperature, or range, at which the solid turns liquid.
